The EC50 is the concentration that produces a half-maximal response. High values mean weaker potency, low ones greater potency. Usually IC50 stands for the concentration at which inhibition is half-maximal.

From US10344025B2, “GLS1 inhibitors for treating disease” (Board of Regents, The University of Texas System, priority 2014, dated 2019) come the findings set out here.

One test deals with A549 cells. The test can be described thus: Proliferation Assay (A549 viability, Cell Titer Fluor, 72 hours). The format is cell-based. As to conditions: Homo sapiens, A549, 72 h. In short, it runs like this:
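Cell Titer Fluor fluorescence after 72 h compound treatment (0.5% DMSO, 37 °C, 5% CO2) of A549 cells plated 24 h earlier at 1000/well. Four-parameter logistic fitting gave IC50.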

Test [1] has as its target purified recombinant human GAC (GLS1) (Homo sapiens (Human), UniProt O94925). The test can be described thus: GLS1 Enzymatic Activity Assay (dual-coupled enzymatic assay, resorufin/Amplex UltraRed readout).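 Further: glutamate from GAC coupled via glutamate oxidase and peroxidase to resorufin, read as fluorescence (ex 530, em 590 nm) kinetically or at 20 min, four-parameter logistic IC50 fit.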 The format is biochemical.

Chain of purified recombinant human GAC (GLS1) (O94925 other isoform, or with tags, fused parts or gaps): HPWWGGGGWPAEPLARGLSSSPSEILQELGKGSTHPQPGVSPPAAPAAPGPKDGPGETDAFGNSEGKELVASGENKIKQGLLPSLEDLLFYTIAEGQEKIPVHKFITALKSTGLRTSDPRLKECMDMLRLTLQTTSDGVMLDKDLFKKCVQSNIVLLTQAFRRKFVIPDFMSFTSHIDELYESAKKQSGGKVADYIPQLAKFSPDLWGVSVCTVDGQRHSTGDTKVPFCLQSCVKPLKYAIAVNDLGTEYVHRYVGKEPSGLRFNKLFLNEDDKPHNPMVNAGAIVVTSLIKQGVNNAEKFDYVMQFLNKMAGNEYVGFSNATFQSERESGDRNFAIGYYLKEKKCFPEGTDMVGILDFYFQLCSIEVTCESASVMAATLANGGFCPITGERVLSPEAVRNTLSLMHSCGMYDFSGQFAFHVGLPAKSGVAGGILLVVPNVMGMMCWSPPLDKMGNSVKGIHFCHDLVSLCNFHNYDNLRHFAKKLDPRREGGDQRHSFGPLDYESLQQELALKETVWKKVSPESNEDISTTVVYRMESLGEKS

In the case of `O=C(NCc1cc(C2CC2)ccn1)c1cn(CCC(F)Cn2cc(C(=O)NCc3cncc(C(F)(F)F)c3)nn2)nn1` (centres unmarked) [Example 152, N-[(4-cyclopropylpyridin-2-yl)methyl]-1-{3-fluoro-4-[4-({[5-(trifluoromethyl)pyridin-3-yl]methyl}carbamoyl)-1H-1,2,3-triazol-1-yl]butyl}-1H-1,2,3-triazole-4-carboxamide], the EC50 in the test with A549 cells is below 100 nM. In addition, in test [1], the half-inhibitory concentration (IC50) was below 100 nM.
In the test with A549 cells, `CNC(=O)c1cn(CCC(F)Cn2cc(C(=O)NCc3cc(OC(F)(F)F)ccc3F)nn2)nn1` (centres unmarked) [Example 153, 1-{3-fluoro-4-[4-({[2-fluoro-5-(trifluoromethoxy)phenyl]methyl}carbamoyl)-1H-1,2,3-triazol-1-yl]butyl}-N-methyl-1H-1,2,3-triazole-4-carboxamide] came in with an EC50 of 100 to 500 nM. Also, the IC50 in test [1] is below 100 nM.
For `CCNC(=O)c1cn(CCC(F)Cn2cc(C(=O)NCc3cc(C(F)(F)F)ccn3)nn2)nn1` (centres unmarked) [Example 154, N-ethyl-1-{3-fluoro-4-[4-({[4-(trifluoromethyl)pyridin-2-yl]methyl}carbamoyl)-1H-1,2,3-triazol-1-yl]butyl}-1H-1,2,3-triazole-4-carboxamide], in that order: 500 to 5000 nM and 500 to 5000 nM.
`O=C(NCc1cn2ccsc2n1)c1cn(CCC(F)Cn2cc(C(=O)NCc3cc(C(F)(F)F)ccn3)nn2)nn1` (centres unmarked) [Example 155, 1-{3-fluoro-4-[4-({[4-(trifluoromethyl)pyridin-2-yl]methyl}carbamoyl)-1H-1,2,3-triazol-1-yl]butyl}-N-{imidazo[2,1-b][1,3]thiazol-6-ylmethyl}-1H-1,2,3-triazole-4-carboxamide] came in with a half-maximal effective concentration (EC50) with A549 cells of 500 to 5000 nM. The IC50 in test [1] was below 100 nM.
For `O=C(NCc1ccc(C(F)(F)F)cn1)c1cn(CCC(F)Cn2cc(C(=O)NCc3cc(C(F)(F)F)ccn3)nn2)nn1` (centres unmarked) [Example 156, 1-{2-fluoro-4-[4-({[5-(trifluoromethyl)pyridin-2-yl]methyl}carbamoyl)-1H-1,2,3-triazol-1-yl]butyl}-N-{[4-(trifluoromethyl)pyridin-2-yl]methyl}-1H-1,2,3-triazole-4-carboxamide], in that order: below 100 nM and below 100 nM.
In the test with A549 cells, `O=C(NCc1cc(C(F)(F)F)ccn1)c1cn(CCCCn2cc(C(=O)NCc3cc(C(F)(F)F)ccn3)nn2)nn1` [Example 158, N-{[4-(trifluoromethyl)pyridin-2-yl]methyl}-1-{4-[4-({[4-(trifluoromethyl)pyridin-2-yl]methyl}carbamoyl)-1H-1,2,3-triazol-1-yl]butyl}-1H-1,2,3-triazole-4-carboxamide] showed an EC50 below 100 nM. In test [1], the IC50 is below 100 nM.
Turning to `Cc1ccnc(CNC(=O)c2cn(CCC(F)Cn3cc(C(=O)NCc4cc(C(F)(F)F)ccn4)nn3)nn2)c1` (centres unmarked) [Example 159, 1-[2-fluoro-4-(4-{[(4-methylpyridin-2-yl)methyl]carbamoyl}-1H-1,2,3-triazol-1-yl)butyl]-N-{[4-(trifluoromethyl)pyridin-2-yl]methyl}-1H-1,2,3-triazole-4-carboxamide], the EC50 with A549 cells is 100 to 500 nM. The IC50 in test [1] is below 100 nM.
As for `CNC(=O)c1cn(CCCCc2ccc(NC(=O)Cc3cc(OC(F)(F)F)ccc3F)nn2)nn1` [Example 160, 1-[4-(6-{2-[2-fluoro-5-(trifluoromethoxy)phenyl]acetamido}pyridazin-3-yl)butyl]-N-methyl-1H-1,2,3-triazole-4-carboxamide], the EC50 in the test with A549 cells is below 100 nM. Moreover, the half-inhibitory concentration (IC50) in test [1] was below 100 nM.
In the test with A549 cells, `CNC(=O)c1cn(CCCCc2ccc(NC(=O)Cc3ccccc3)nn2)nn1` [Example 161, N-methyl-1-{4-[6-(2-phenylacetamido)pyridazin-3-yl]butyl}-1H-1,2,3-triazole-4-carboxamide] displayed an EC50 below 100 nM. In addition, the 50% inhibitory concentration (IC50) in test [1] was below 100 nM.
Regarding `CNC(=O)c1cn(CCC(F)Cn2cc(C(=O)NCc3cccc(OC(F)(F)F)c3)nn2)nn1` (centres unmarked) [Example 162, 1-{3-fluoro-4-[4-({[3-(trifluoromethoxy)phenyl]methyl}carbamoyl)-1H-1,2,3-triazol-1-yl]butyl}-N-methyl-1H-1,2,3-triazole-4-carboxamide], the half-maximal effective concentration (EC50) in the test on A549 cells lay in the range of 100 to 500 nM. Further, the IC50 in test [1] lay in the range of 100 to 500 nM.
Consider `CNC(=O)c1cn(CCC(F)Cn2cc(C(=O)NCc3ccccn3)nn2)nn1` (centres unmarked) [Example 163, 1-(3-fluoro-4-{4-[(pyridin-2-ylmethyl)carbamoyl]-1H-1,2,3-triazol-1-yl}butyl)-N-methyl-1H-1,2,3-triazole-4-carboxamide], for which, in the test with A549 cells, the EC50 lay in the range of 500 to 5000 nM. For the same molecule, the half-inhibitory concentration (IC50) in test [1] lay in the range of 500 to 5000 nM.
In the test on A549 cells, `CNC(=O)c1cn(CCC(F)Cn2cc(C(=O)NCc3cncc(C4CC4)c3)nn2)nn1` (centres unmarked) [Example 164, 1-[4-(4-{[(5-cyclopropylpyridin-3-yl)methyl]carbamoyl}-1H-1,2,3-triazol-1-yl)-3-fluorobutyl]-N-methyl-1H-1,2,3-triazole-4-carboxamide] yielded an EC50 of 100 to 500 nM. The IC50 in test [1] was below 100 nM.
For `CNC(=O)c1cn(CCC(F)Cn2cc(C(=O)NCc3ccccc3)nn2)nn1` (centres unmarked) [Example 165, 1-{4-[4-(benzylcarbamoyl)-1H-1,2,3-triazol-1-yl]-3-fluorobutyl}-N-methyl-1H-1,2,3-triazole-4-carboxamide], in that order: 500 to 5000 nM and 100 to 500 nM.
In the test on A549 cells, `CNC(=O)c1cn(CCC(F)Cn2cc(C(=O)NCc3cccc(CNC(=O)OC(C)(C)C)c3)nn2)nn1` (centres unmarked) [Example 166, tert-butyl N-[(3-{[(1-{2-fluoro-4-[4-(methylcarbamoyl)-1H-1,2,3-triazol-1-yl]butyl}-1H-1,2,3-triazol-4-yl)formamido]methyl}phenyl)methyl]carbamate] displayed an EC50 of 100 to 500 nM. The IC50 in test [1] was below 100 nM.
For `N#CCNC(=O)c1cn(CCC(F)Cn2cc(C(=O)NCc3cc(OC(F)(F)F)ccc3F)nn2)nn1` (centres unmarked) [Example 168, N-(cyanomethyl)-1-{3-fluoro-4-[4-({[2-fluoro-5-(trifluoromethoxy)phenyl]methyl}carbamoyl)-1H-1,2,3-triazol-1-yl]butyl}-1H-1,2,3-triazole-4-carboxamide], in that order: 100 to 500 nM and below 100 nM.
`CNC(=O)c1cn(CCC(F)Cn2cc(C(=O)NCc3cnc4ccccc4c3)nn2)nn1` (centres unmarked) [Example 170, 1-(3-fluoro-4-{4-[(quinolin-3-ylmethyl)carbamoyl]-1H-1,2,3-triazol-1-yl}butyl)-N-methyl-1H-1,2,3-triazole-4-carboxamide] had a half-maximal effective concentration (EC50) in the test with A549 cells of 500 to 5000 nM. Besides, the IC50 in test [1] is 100 to 500 nM.
Take `CNC(=O)c1cn(CCC(F)Cn2cc(C(=O)NCc3cncc4ccccc34)nn2)nn1` (centres unmarked) [Example 171, 1-(3-fluoro-4-{4-[(isoquinolin-4-ylmethyl)carbamoyl]-1H-1,2,3-triazol-1-yl}butyl)-N-methyl-1H-1,2,3-triazole-4-carboxamide]: the EC50 in the test with A549 cells was in the range of 500 to 5000 nM. Further, in test [1], the IC50 fell in the range of 100 to 500 nM.
Molecule `CNC(=O)c1cn(CCCCc2ccc(NC(=O)Cc3cccc(CNC(=O)OC(C)(C)C)c3)nn2)nn1` [Example 172] showed a concentration giving a half-maximal response (EC50) in the test on A549 cells below 100 nM. Also, the IC50 in test [1] is below 100 nM.
`CNC(=O)c1cn(CCCCc2ccc(NC(=O)Cc3cccc(OCCOC)c3)nn2)nn1` [Example 173, 1-[4-(6-{2-[3-(2-methoxyethoxy)phenyl]acetamido}pyridazin-3-yl)butyl]-N-methyl-1H-1,2,3-triazole-4-carboxamide] yielded an EC50 with A549 cells of 100 to 500 nM. The half-maximal inhibitory concentration (IC50) in test [1] was in the range of 100 to 500 nM.
